The source of these data is paper PMC8519022, “Diarylethene‐Based Photoswitchable Inhibitors of Serine Proteases” (Angewandte Chemie (International Ed. in English), 2021).

The procedure of series [1]: The photostability in repeated cycles of reversible photoisomerization was studied on three selected compounds (linear three-peptide […]
samples were prepared in the same manner as for UV-Vis absorption characterization, namely at 20 mM in deoxygenated water.
The UV irradiation was done at spectral range of 320 -400 nm, 167 mW/cm 2 for 15 s; the visible light irradiation at 570 nm, 143 mW/cm2 for 60 s (both using LUMATEC® light source).
Figure S3. Photostability study of the three selected peptides at 20 mM in deoxygenated water at 22°C in 15 cycles of reversible photoisomerization with visible (570 nm, 143 mW/cm2 for 60 s) and UV light (320-400 nm, 167 mW/cm2 for 15 s). The left plots show absorption spectra after each 5 cycles (normalized at 575 nm for ring-closed forms). The right plots show the % of ring-closed form measured as absorbance at 575 nm.

The next series concerns other E. coli strains. The settings on record: other E. coli strains in MHB medium; ref S7; cited from earlier work.
The target of series [2] is T1, Bos taurus trypsin 1 (T1) (Bos taurus, UniProt P00760).
T1 sequence (P00760 24-246): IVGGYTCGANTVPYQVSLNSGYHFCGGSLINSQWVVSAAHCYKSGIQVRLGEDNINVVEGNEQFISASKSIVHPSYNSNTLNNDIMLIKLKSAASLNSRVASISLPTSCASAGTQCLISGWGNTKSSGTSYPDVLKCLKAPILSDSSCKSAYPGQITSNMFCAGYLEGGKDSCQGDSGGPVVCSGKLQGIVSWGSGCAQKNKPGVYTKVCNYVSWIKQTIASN
Briefly: Trypsin inhibition, Ki by Lineweaver-Burk analysis.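 Note: trypsin activity followed by spectrophotometric hydrolysis kinetics of the chromogenic substrate BAPNA in Tris buffer, Ki obtained from double-reciprocal Lineweaver–Burk plots at several substrate concentrations.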
Procedure: (§7) The inhibition of trypsin and α-chymotrypsin was investigated by two methods. First, the inhibition was determined at a fixed enzyme and substrate concentration, whereas the inhibitor concentration varied. By plotting the protease activity against an inhibitor’s concentration, IC50 (the half-maximal inhibitory concentration) was determined.
(§8) Lineweaver–Burk analysis (see below), the Ki values for all peptide inhibitors were determined with high accuracy.
(§9) All measurements were performed with p-nitroaniline-based chromogenic substrates (λabs = 405 nm) in 96-well microtiter plates using
EpochTM 2 microplate spectrophotometer. For trypsin measurements the Tris buffer (50 mM Tris-HCl, 25 mM CaCl2, 0.005% Tween®
For the measurements, a fresh 0.92 µM trypsin solution was prepared from the storage aliquot and kept on ice.
A stock solution of the substrate BAPNA (Nα-Benzoyl-DL-arginine 4-nitroanilide hydrochloride) at the concentration of 50 mM in
aqueous dimethyl sulfoxide (DMSO) (100 mg of BAPNA in 4.6 mL of DMSO:water mixture 1:1) was pre pared and stored at RT.
peptide solutions at the concentration of 100 µM, which was further diluted to 10, 1, or 0.1 µM if required, were prepared in Milli-Q®
For the determination of IC50, a double dilution series of inhibit ors were prepared in a 96 -well plate (12 concentrations, two repeats
for each concentration, 200 µL of Tris buffer in each well). Subsequently, a trypsin solution (20 µL, 150 nM) was added to ea ch well
with the tested peptide and to the control row. Soluti ons in each well were intensely mixed using a multichannel pipette (from lower
concentration to higher). After a pre -incubation period (5 min), the substrate BAPNA was added to each well (20 µL, 25 mM).
solutions were thoroughly mixed with the multicha nnel pipette, and the kinetics of substrate hydrolysis was recorded with an interval
of 1 min between measurements over 20 min. The total volume in each well was 240 µL, final trypsin and BAPNA concentrations
were 12.5 nM and 2.08 mM, respectively. The mea n values of the two repeats of the slope of absorption vs. time curves were
calculated. The activities at different inhibitor concentrations were then calculated by taking the control curves’ slope val ues (no
inhibitor) as the 100% enzyme activity. The inh ibition activity IC 50 against α-chymotrypsin (α-chymotrypsin from bovine pancreas
(§10) type II) was measured in the same way except that a different substrate, Ac-EAPF-pNA (Ac-Glu-Ala-Pro-Phe-pNA), was used (20
Inhibitory constants Ki were determined by Lineweaver-Burk (LWB) double-reciprocal analysis according to a published protocol.[S5]
Briefly, a fresh inhibitor/enzyme mixture was prepared in a glass vial and distributed to 2x6 wells (200 µL in each well, enzyme
concentration after dilution 12 nM). An enzyme without an inhibitor was added to the control wells. Aliquots of varying substrate stock
solutions were added with a multichannel pipette to each well. For trypsin inhibition experiments, BAPNA (20 µL per well of 20, 22.7,
26, 29.8, 34, 40 mM) and for α-chymotrypsin Ac-EAPF-pNA (20 µL per well of 16, 12.48, 10, 8, 6.4, 5.44 mM) were used, respectively.
Well contents were thoroughly mixed using a multichannel pipette, and a plate reader was used to monitor the hydrolysis kinetics
(sampling interval of 1 min over 20 min).

In series [3] the target is T2, trypsin (Bos taurus, UniProt P00760).
T2 sequence (P00760 24-246): T1 sequence (P00760 24-246)
Briefly: Trypsin inhibition, IC50 at fixed enzyme and substrate concentration. The class given is biochemical. An excerpt: (§1) 6. Protease inhibition assays
(§2) With the second method, using
(§3) EpochTM 2 microplate spectrophotometer.
(§4) deionized ultrapure water.
(§5) concentration to higher). […] The
(§6) inhibitor) as the 100% enzyme activity.

For series [4], the target named is T2, trypsin. The settings on record: for k H [M^−1 s^−1] (closed): pH 8.2.
Procedure: Analysis of the proteolytic stability
(§11) Proteolytic stability of the peptides was characterized by determining hydrolysis rates (kH) by the action of trypsin in a 50 mM Tris–
(§12) HCl buffer, pH 8.2, supplemented with 25 mM CaCl2 and 0.005% Tween®20 at 22°C. The peptides at a concentration of 50 μM were
(§13) mixed with trypsin (0.5 μM) in a 2 mL total volume. At selected time intervals, 70 μL samples of the mixture were taken, quenched
(§14) by addition 130 μL 2% aqueous formic acid, and immediately analyzed by analytical HPLC. The kH values were calculated from the
(§15) time-dependent data assuming zero-order kinetics (zero-order kinetics applies due to the high substrate/enzyme ratio of 100 to 1).
(§16) For the fitting the linear part of the hydrolysis curve was taken excluding the last time point in which the entire peptide inhibitor was
(§17) analogues could hydrolyze at two positions: at the Lys (P1 position) of the inhibitory loop and after the stabilizing loop’s arginine
(§18) residue (P4 position).[S6] The ultimate product (i.e., cleaved at both positions) had, therefore, a MALDI-TOF-MS detectable mass
(§19) The identity of each peak was confirmed by MALDI -TOF-MS. Detection – 220 nm, hydrolysis time is indicated at each chromatogram.
The target of series [5] is T3, α-chymotrypsin from bovine pancreas type II (Bos taurus, UniProt P00766). Briefly: α-Chymotrypsin inhibition, IC50 at fixed enzyme and substrate concentration. The series is classed as biochemical. Also on record: host or cells: bovine pancreas.
From the text: as §1, §2, §3, §4, §5, §6

Series [6] has as its target T2, trypsin. Briefly: Proteolytic stability: T1-induced hydrolysis rate constants (kH). The settings on record: non-photoswitchable reference compound; peptide 50 μM, trypsin 0.5 μM, 50 mM Tris-HCl pH 8.2, 25 mM CaCl2, 0.005% Tween 20, 22°C, analytical HPLC, zero-order fit.
Procedure: Analysis of the proteolytic stability
as §11, §12, §13, §14, §15, §16, §17, §18, §19
Series [7] deals with T3, α-chymotrypsin from bovine pancreas type II. Briefly: α-Chymotrypsin inhibition, Ki by Lineweaver-Burk analysis.
Procedure: as §7, §8, §9
EpochTM 2 microplate spectrophotometer. For trypsin measurements the Tris buffer (50 mM Tris-HCl, 25 mM CaCl2, 0.005% Tween® […]
solutions were thoroughly mixed with the multicha nnel pipette, and the kinetics of substrate hydrolysis was recorded with an interval […]
calculated. The activities at different inhibitor concentrations were then calculated by taking the control curves’ slope val ues (no […]
as §10
Inhibitory constants Ki were determined by Lineweaver-Burk (LWB) double-reciprocal analysis according to a published protocol.[S5] […]
Well contents were thoroughly mixed using a multichannel pipette, and a plate reader was used to monitor the hydrolysis kinetics […]

The structures appear in SMILES notation. Read-outs that look alike come from different tables or passages of the source. *1 amine or outer side, *2 acyl side, *3 side chain or, on linkers, in order; H or OH if unused. Where a SMILES comes first, the peptide text is derived from it. Bridges are numbered along the chain shown (N, C = ends). X1 = Cc1sc(C(=O)[C@@H]2CCCN2[*:2])cc1C1=C(c2cc(C(=O)[*:1])sc2C)CCC1

Turning to `CC(=O)N[C@@H](C)C(=O)N1CCC[C@H]1C(=O)c1cc(C2=C(c3cc(C(=O)N[C@@H](C)C(N)=O)sc3C)CCC2)c(C)s1` [Ac‐Ala‐1‐Ala‐NH2], the “degradation in repeated cycles of reversible photoisomerization” value (“degradation in repeated cycles” below) in series [1] (15 cycles, UV 320-400 nm 167 mW/cm2 15 s, visible 570 nm 143 mW/cm2 60 s, 20 mM in deoxygenated water, 22°C, absorbance 575 nm) is recorded as “less than 30%”.

Broadly, the MIC is the smallest concentration in the dilution series that meets the test's criterion for growth inhibition. Take `CC[C@H](C)[C@H](NC(=O)[C@H](CCCNC(=N)N)NC(=O)[C@H](CCCNC(=N)N)NC(=O)[C@H](Cc1ccccc1)NC(=O)[C@H](CC(C)C)NC(=O)[C@H](CCCNC(=N)N)NC(=O)[C@@H](N)CCCNC(=N)N)C(=O)N[C@@H](CC(C)C)C(=O)N[C@@H](CCCNC(=N)N)C(=O)N[C@@H](Cc1c[nH]c2ccccc12)C(=O)N[C@@H](CC(C)C)C(N)=O` [BP100‐RW] (H-RRLFRRILRWL-NH2): in the series with other E. coli strains, the MIC is 0.2 to 0.5 µg/mL.

The term Ki denotes a measure of affinity in units of concentration, obtained from inhibition or displacement. A higher Ki goes with a looser hold on the target. With `CC[C@H](C)[C@@H]1NC(=O)[C@@H]2CCCN2C(=O)[C@@H]2CCCN2C(=O)[C@H]([C@@H](C)CC)NC(=O)[C@H](CO)NC(=O)[C@H](CCCCN)NC(=O)[C@H]([C@@H](C)O)NC(=O)[C@H](C)NC(=O)[C@H](CCCNC(=N)N)NC(=O)c2cc(c(C)s2)C2=C(CCC2)c2cc(sc2C)C(=O)[C@@H]2CCCN2C(=O)[C@H](Cc2ccccc2)NC(=O)[C@H](C)NC1=O` [Peptide S2] (RATKSIPPIAF; linker N-C via X1), the “degradation in repeated cycles” value in series [1] is “less than 30%”. Besides, the Ki was determined as 659 ± 33 nM in series [2] (K i [nM] (closed)) and 203 ± 6 nM in series [2] (K i [nM] (open)).

The IC50 is the point on the concentration scale where inhibition reaches its midpoint. `CC[C@H](C)[C@@H]1NC(=O)[C@@H]2CCCN2C(=O)[C@@H]2CCCN2C(=O)[C@H]([C@@H](C)CC)NC(=O)[C@H](CO)NC(=O)[C@H](Cc2ccccc2)NC(=O)[C@H]([C@@H](C)O)NC(=O)[C@@H]2CSSC[C@H](NC1=O)C(=O)N[C@@H](Cc1ccccc1)C(=O)N[C@@H](CC(C)C)C(=O)N1CCC[C@H]1C(=O)c1cc(c(C)s1)C1=C(CCC1)c1cc(sc1C)C(=O)N[C@@H](C(C)C)C(=O)N[C@@H](CCCNC(=N)N)C(=O)N2` [Peptide S5F] (VRCTFSIPPICFL; disulfide 3-11; linker N-C via X1): the 50% inhibitory concentration (IC50) against trypsin [3] is 50000 to 100000 nM.

For the molecule `CC[C@H](C)[C@@H]1NC(=O)[C@@H]2CCCN2C(=O)[C@@H]2CCCN2C(=O)[C@H]([C@@H](C)CC)NC(=O)[C@H](CO)NC(=O)[C@H](CCCCN)NC(=O)[C@H]([C@@H](C)O)NC(=O)[C@@H]2CSSC[C@H](NC1=O)C(=O)N[C@@H](CCCNC(=N)N)C(=O)N[C@@H](CC(C)C)C(=O)N1CCC[C@H]1C(=O)c1cc(c(C)s1)C1=C(CCC1)c1cc(sc1C)C(=O)N[C@@H](C(C)C)C(=O)N[C@@H](Cc1ccccc1)C(=O)N2` [Peptide S10i] (VFCTKSIPPICRL; disulfide 3-11; linker N-C via X1), the “degradation in repeated cycles” value in series [1] is “less than 30%”. For the same molecule, the “k H (closed) /k H (open)” value on trypsin [4] is recorded as 4.2. The “k H [M^−1 s^−1] (closed)” value on trypsin [4] is 2.2±0.3×10^−4 M^−1 s^−1. For the same molecule, the Ki in series [2] (K i [nM] (closed)) amounted to 44.8 ± 2.2 nM; in series [2] (K i [nM] (open)) it was 5.1 ± 0.4 nM.

For the molecule `CC[C@H](C)[C@@H]1NC(=O)[C@@H]2CCCN2C(=O)[C@@H]2CCCN2C(=O)[C@H]([C@@H](C)CC)NC(=O)[C@H](CO)NC(=O)[C@H](CCCCN)NC(=O)[C@H]([C@@H](C)O)NC(=O)[C@@H]2CSSC[C@H](NC1=O)C(=O)N[C@@H](Cc1ccccc1)C(=O)N[C@@H](CC(C)C)C(=O)N1CCC[C@H]1C(=O)c1cc(c(C)s1)C1=C(CCC1)c1cc(sc1C)C(=O)N[C@@H](C(C)C)C(=O)N[C@@H](CCCNC(=N)N)C(=O)N2` [Peptide S10n] (VRCTKSIPPICFL; disulfide 3-11; linker N-C via X1), at trypsin [4], the “k H (closed) /k H (open)” value was found to be 15.7 and the “k H [M^−1 s^−1] (closed)” value is 3.6±0.3×10^−3 M^−1 s^−1. This molecule also returned an IC50 in series [5] of 50000 to 100000 nM. Besides, in series [2] (K i [nM] (closed)), the Ki amounted to 181 ± 7 nM. For the same molecule, in series [2] (K i [nM] (open)), the Ki was found to be 17.5 ± 0.7 nM.

Regarding `CC[C@H](C)[C@@H]1NC(=O)[C@@H]2CCCN2C(=O)[C@@H]2CCCN2C(=O)[C@H]([C@@H](C)CC)NC(=O)[C@H](CO)NC(=O)[C@H](CCCCN)NC(=O)[C@H]([C@@H](C)O)NC(=O)[C@@H]2CSSC[C@H](NC1=O)C(=O)N[C@@H](CCCNC(=N)N)C(=O)N1CCC[C@H]1C(=O)N[C@@H](CC(=O)O)C(=O)NCC(=O)N[C@@H](Cc1ccccc1)C(=O)N2` [SFTI‐1i, reference compound] (cyclo(CRPDGFCTKSIPPI); disulfide 1-7), the IC50 on trypsin [3] (non-photoswitchable reference, trypsin 12.5 nM, BAPNA 2.08 mM, Tris pH 8.2, 5 min pre-incubation, read-out: IC50, nM (trypsin inhibition)) is 15.6 nM. Besides, at trypsin [6], the “k H [M^−1 s^−1]” value is on record as 2.0±0.2×10^−5 M^−1 s^−1.

With `CC[C@H](C)[C@@H]1NC(=O)[C@@H]2CCCN2C(=O)[C@@H]2CCCN2C(=O)[C@H]([C@@H](C)CC)NC(=O)[C@H](CO)NC(=O)[C@H](Cc2ccccc2)NC(=O)[C@H]([C@@H](C)O)NC(=O)[C@@H]2CSSC[C@H](NC1=O)C(=O)N[C@@H](Cc1ccccc1)C(=O)N1CCC[C@H]1C(=O)N[C@@H](CC(=O)O)C(=O)NCC(=O)N[C@@H](CCCNC(=N)N)C(=O)N2` [SFTI‐5F, reference compound] (cyclo(CFPDGRCTFSIPPI); disulfide 1-7), the IC50 in series [5] (non-photoswitchable control, enzyme 12.5 nM, Ac-EAPF-pNA 1.33 mM, read-out: IC50, nM (α-chymotrypsin inhibition)) came out at 6.6 nM. The molecule further had a Ki in series [7] of 2.8 nM.
